Data on three compounds can be found in publication PMC5823565, “Targeting ovarian cancer and endothelium with an allosteric PTP4A3 phosphatase inhibitor” (Oncotarget, 2017).

Each structure is given as a SMILES string. Entries after “also recorded” stand apart in the source; their conditions may differ.

Assay [1] concerns A2780CP20. The assay can be described thus: 2D monolayer viability assay (CellTiter Blue). Format: cell-based. Conditions: Homo sapiens; 48 h, Mean ± SD, N=3. (In general: Resazurin is reduced to fluorescent resorufin, in cell work by metabolically active cells.)
Assay [2] relates to A2780. The assay can be described thus: 2D monolayer viability assay (CellTiter Blue). The class given is cell-based. The note with it: Homo sapiens, A2780; 48 h, Mean ± SD, N=3; read-out: Monolayer (IC50 µM) A2780.
Assay [3] deals with HEYA8-MDR. Kind of assay: 2D monolayer viability assay (CellTiter Blue). The class given is cell-based. The note with it: Homo sapiens, 48 h, Mean ± SD, N=3.
Assay [4] has as its system HEYA8. The assay can be described thus: 2D monolayer viability assay (CellTiter Blue). The note with it: Homo sapiens, HEY A8; 48 h, Mean ± SD, N=3. Format: cell-based.
Assay [5] concerns IMR90 fibroblasts. The assay can be described thus: 2D monolayer viability assay (CellTiter Blue). The class given is cell-based. Conditions: Homo sapiens, IMR-90; 48 h, N=3.
For assay [6], the system named is OVCAR4. Kind of assay: 2D monolayer viability assay (CellTiter Blue). The note with it: Homo sapiens, OVCAR-4; 48 h, Mean ± SD, N=3. Format: cell-based.
For assay [7], the system named is SKOV3IP1. Kind of assay: 2D monolayer viability assay (CellTiter Blue). The note with it: Homo sapiens; 48 h, Mean ± SD, N=3. The class given is cell-based.
In assay [8] the test system is SKOV3TRIP2. Kind of assay: 2D monolayer viability assay (CellTiter Blue). The class given is cell-based. Conditions: Homo sapiens; 48 h, Mean ± SD, N=3.
The subject of assay [9] is SKOV3. The assay can be described thus: 2D monolayer viability assay (CellTiter Blue). Conditions: Homo sapiens, SK-OV-3; 48 h, Mean ± SD, N=3. Format: cell-based.
Assay [10] has as its system OvCa cell lines. The assay can be described thus: 2D monolayer viability assay, across the panel. The class given is cell-based, human. The note with it: Homo sapiens, 48 h, read-out: no significant growth inhibition of any of the OvCa cell lines at concentrations as high as.
Assay [11] relates to HeyA8 spheroids. The assay can be described thus: Spheroid viability and growth assay. Format: cell-based, human.
Assay [12] has as its system A2780 spheroids. The assay can be described thus: Spheroid viability assay (CellTiterGlo 3D). The class given is cell-based. Conditions: Homo sapiens, 48 h, Mean ± SD, N=3.
The subject of assay [13] is A2780CP20 spheroids. The assay can be described thus: Spheroid viability assay (CellTiterGlo 3D). The note with it: Homo sapiens; 48 h, Mean ± SD, N=3. The class given is cell-based. On the technique in general: Cellular ATP, detected with luciferase, serves as a proxy for viable cell number.
For assay [14], the system named is COV362 spheroids. The assay can be described thus: Spheroid viability assay (CellTiterGlo 3D). Format: cell-based. Conditions: Homo sapiens, 48 h, Mean ± SD, N=3.
Assay [15] has as its system HeyA8-MDR spheroids. Kind of assay: Spheroid viability assay (CellTiterGlo 3D). The class given is cell-based. The note with it: Homo sapiens, 48 h, Mean ± SD, N=3.
The test system of assay [16] is OVCAR4 spheroids. The assay can be described thus: Spheroid viability assay (CellTiterGlo 3D). Format: cell-based. The note with it: Homo sapiens, OVCAR-4; 48 h, Mean ± SD, N=3.
The subject of assay [17] is SKOV3 spheroids. Kind of assay: Spheroid viability assay (CellTiterGlo 3D). Conditions: Homo sapiens, SK-OV-3; 48 h, Mean ± SD, N=3. Format: cell-based.
Assay [18] has as its system SKOV3IP1 spheroids. The assay can be described thus: Spheroid viability assay (CellTiterGlo 3D). The class given is cell-based. Conditions: Homo sapiens; 48 h, Mean ± SD, N=3.
Assay [19] deals with SKOV3TRIP2 spheroids. The assay can be described thus: Spheroid viability assay (CellTiterGlo 3D). Format: cell-based. Conditions: Homo sapiens; 48 h, Mean ± SD, N=3.
Assay [20] concerns normal human ovarian HI0-180 epithelial cells. Kind of assay: Spheroid viability assay (CellTiterGlo 3D). The class given is cell-based. Conditions: Epithelial cell, 48 h.
The test system of assay [21] is OvCa cell line spheroids. The assay can be described thus: Spheroid viability assay, across the panel. Format: cell-based. Conditions: Homo sapiens; 48 h exposure; read-out: no effects on spheroids in any cell lines at concentrations up to.
Assay [22] concerns HeyA8 cells. The assay can be described thus: Scratch wound migration assay. The note with it: measured 14 h after scratch. The class given is cell-based, human.
The subject of assay [23] is RhoA activation in HeyA8 cells. Kind of assay: RhoA G-LISA activation assay. The class given is cell-based, human. The note with it: HeyA8, 1 µM.
The target in assay [24] is T1, PTP4A3 protein (Homo sapiens, UniProt O75365). Kind of assay: Thermal shift assay with SYPRO orange. Conditions: 100 µM compound, 16 μM protein. Format: binding. Also noted: made in house.
In assay [25] the target is T1, PTP4A3 protein. Kind of assay: PTP4A3 phosphatase activity assay with DiFMUP substrate. Also noted: using a full-length recombinant human PTP4A3 and DiFMUP as the substrate; His6; made in house. The class given is biochemical. Conditions: full-length recombinant human PTP4A3, DiFMUP substrate; read-out: PTP4A3 inhibition, inactive at concentrations as high as.
Assay [26] deals with PTP4A1 (Homo sapiens, UniProt Q93096). The assay can be described thus: PTP4A1 phosphatase activity assay with DiFMUP. The class given is biochemical. The note with it: DiFMUP substrate.
Assay [27] addresses PTPN7 (HePTP) (Homo sapiens, UniProt P35236). Kind of assay: Phosphatase specificity profiling (PhosphataseProfiler). Format: biochemical. The note with it: 10 µM DiFMUP, commercial vendor, N=2, read-out: % Activity (Mean ± SD) PTPN7 (HePTP).
The target of assay [28] is LMPTP-B (Homo sapiens, UniProt P24666). Described as above. The class given is biochemical. Conditions: 10 µM DiFMUP, commercial vendor, N=2, read-out: % Activity (Mean ± SD) LMPTP-B.
Assay [29] addresses PTPRB (PTPβ) (Homo sapiens, UniProt P23467). Described as above. The class given is biochemical. Conditions: 10 µM DiFMUP, commercial vendor, N=2, read-out: % Activity (Mean ± SD) PTPRB (PTPβ).
For assay [30], the target named is DUSP13 (TMDP) (Homo sapiens, UniProt Q9UII6). Described as above. The class given is biochemical. The note with it: 10 µM DiFMUP, commercial vendor, N=2, read-out: % Activity (Mean ± SD) DUSP13 (TMDP).
The target of assay [31] is T2, Lambda PP (Phage) (Escherichia phage lambda, UniProt P03772).
T2 construct: purchased Eurofins (Dundee, Scotland, UK), PhosphataseProfiler
The assay is described as above. The class given is biochemical. The note with it: 10 µM DiFMUP, commercial vendor, N=2, read-out: % Activity (Mean ± SD) Lambda PP (Phage).

For assay [32], the target named is T3, p38α (Homo sapiens, UniProt Q16539).
T3 construct: purchased Luceome Biotechnologies (Tucson, AZ), KinaseSeeker
Kind of assay: Kinase profiling (KinaseSeeker). Conditions: 1 µM screening concentration. The class given is biochemical.

Assay [33] deals with primary human lung microvascular endothelial cells (MVEC). The assay can be described thus: Endothelial barrier function (TEER, ECIS) after VEGF challenge. Format: cell-based. The note with it: 5 µM.
For assay [34] the test system is unchanged. Kind of assay: Endothelial barrier function (TEER, ECIS) after LPS challenge. Format: cell-based.
Assay [35] concerns RhoA activation in human MVEC. The assay can be described thus: RhoA activation pull-down assay in MVEC after LPS. Format: cell-based. The note with it: 5 µM pretreatment 24 h, LPS 0.5 EU/mL 1 h.
Assay [36] has as its system Rac1 activation in human MVEC. Kind of assay: Rac1 activation assay in MVEC after LPS. The class given is cell-based. Conditions: 5 µM pretreatment 24 h, LPS 0.5 EU/mL 1 h.

T1 sequence (O75365 whole entry): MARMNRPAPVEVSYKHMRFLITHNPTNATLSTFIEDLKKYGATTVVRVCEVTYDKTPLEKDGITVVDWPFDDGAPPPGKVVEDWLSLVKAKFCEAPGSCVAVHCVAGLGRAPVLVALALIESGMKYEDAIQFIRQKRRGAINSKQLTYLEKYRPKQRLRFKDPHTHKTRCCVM
Chain of PTP4A1 (Q93096 whole entry): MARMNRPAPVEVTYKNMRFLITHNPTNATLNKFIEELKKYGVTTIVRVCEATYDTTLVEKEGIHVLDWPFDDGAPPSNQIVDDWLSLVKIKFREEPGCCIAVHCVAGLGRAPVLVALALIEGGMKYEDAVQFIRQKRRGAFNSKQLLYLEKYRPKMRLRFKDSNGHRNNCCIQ
Chain of DUSP13 (TMDP) (Q9UII6 whole entry): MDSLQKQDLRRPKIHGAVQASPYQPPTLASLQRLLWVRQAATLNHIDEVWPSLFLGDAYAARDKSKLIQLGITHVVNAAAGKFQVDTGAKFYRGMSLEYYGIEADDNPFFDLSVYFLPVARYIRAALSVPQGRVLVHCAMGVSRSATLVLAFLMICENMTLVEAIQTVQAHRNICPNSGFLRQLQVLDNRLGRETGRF
T3 sequence (Q16539 whole entry): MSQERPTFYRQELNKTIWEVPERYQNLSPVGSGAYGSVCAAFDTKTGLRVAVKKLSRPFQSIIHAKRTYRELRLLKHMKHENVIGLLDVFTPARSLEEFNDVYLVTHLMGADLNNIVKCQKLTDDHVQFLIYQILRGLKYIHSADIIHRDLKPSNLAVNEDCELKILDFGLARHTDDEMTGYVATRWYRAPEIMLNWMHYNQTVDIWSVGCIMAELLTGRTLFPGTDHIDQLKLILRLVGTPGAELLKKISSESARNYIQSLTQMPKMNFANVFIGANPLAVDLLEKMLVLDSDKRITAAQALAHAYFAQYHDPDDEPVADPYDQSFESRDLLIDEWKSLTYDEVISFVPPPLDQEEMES
Chain of LMPTP-B (P24666 1-158 isoform P24666-2): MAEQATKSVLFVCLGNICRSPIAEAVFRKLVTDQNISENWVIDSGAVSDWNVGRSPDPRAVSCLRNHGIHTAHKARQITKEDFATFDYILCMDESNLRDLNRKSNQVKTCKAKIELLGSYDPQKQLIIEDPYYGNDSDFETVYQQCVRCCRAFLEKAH
Chain of PTPN7 (HePTP) (P35236 whole entry): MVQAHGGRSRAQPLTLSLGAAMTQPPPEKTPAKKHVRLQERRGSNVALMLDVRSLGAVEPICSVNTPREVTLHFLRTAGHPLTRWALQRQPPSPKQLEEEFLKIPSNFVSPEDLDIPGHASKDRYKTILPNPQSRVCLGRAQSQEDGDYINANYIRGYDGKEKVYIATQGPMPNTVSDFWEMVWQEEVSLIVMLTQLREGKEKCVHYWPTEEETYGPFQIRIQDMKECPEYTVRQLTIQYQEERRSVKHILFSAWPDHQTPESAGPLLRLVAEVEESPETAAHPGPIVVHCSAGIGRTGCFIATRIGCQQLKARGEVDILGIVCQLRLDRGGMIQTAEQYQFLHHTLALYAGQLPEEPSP
Chain of PTPRB (PTPβ) (P23467 23-1997): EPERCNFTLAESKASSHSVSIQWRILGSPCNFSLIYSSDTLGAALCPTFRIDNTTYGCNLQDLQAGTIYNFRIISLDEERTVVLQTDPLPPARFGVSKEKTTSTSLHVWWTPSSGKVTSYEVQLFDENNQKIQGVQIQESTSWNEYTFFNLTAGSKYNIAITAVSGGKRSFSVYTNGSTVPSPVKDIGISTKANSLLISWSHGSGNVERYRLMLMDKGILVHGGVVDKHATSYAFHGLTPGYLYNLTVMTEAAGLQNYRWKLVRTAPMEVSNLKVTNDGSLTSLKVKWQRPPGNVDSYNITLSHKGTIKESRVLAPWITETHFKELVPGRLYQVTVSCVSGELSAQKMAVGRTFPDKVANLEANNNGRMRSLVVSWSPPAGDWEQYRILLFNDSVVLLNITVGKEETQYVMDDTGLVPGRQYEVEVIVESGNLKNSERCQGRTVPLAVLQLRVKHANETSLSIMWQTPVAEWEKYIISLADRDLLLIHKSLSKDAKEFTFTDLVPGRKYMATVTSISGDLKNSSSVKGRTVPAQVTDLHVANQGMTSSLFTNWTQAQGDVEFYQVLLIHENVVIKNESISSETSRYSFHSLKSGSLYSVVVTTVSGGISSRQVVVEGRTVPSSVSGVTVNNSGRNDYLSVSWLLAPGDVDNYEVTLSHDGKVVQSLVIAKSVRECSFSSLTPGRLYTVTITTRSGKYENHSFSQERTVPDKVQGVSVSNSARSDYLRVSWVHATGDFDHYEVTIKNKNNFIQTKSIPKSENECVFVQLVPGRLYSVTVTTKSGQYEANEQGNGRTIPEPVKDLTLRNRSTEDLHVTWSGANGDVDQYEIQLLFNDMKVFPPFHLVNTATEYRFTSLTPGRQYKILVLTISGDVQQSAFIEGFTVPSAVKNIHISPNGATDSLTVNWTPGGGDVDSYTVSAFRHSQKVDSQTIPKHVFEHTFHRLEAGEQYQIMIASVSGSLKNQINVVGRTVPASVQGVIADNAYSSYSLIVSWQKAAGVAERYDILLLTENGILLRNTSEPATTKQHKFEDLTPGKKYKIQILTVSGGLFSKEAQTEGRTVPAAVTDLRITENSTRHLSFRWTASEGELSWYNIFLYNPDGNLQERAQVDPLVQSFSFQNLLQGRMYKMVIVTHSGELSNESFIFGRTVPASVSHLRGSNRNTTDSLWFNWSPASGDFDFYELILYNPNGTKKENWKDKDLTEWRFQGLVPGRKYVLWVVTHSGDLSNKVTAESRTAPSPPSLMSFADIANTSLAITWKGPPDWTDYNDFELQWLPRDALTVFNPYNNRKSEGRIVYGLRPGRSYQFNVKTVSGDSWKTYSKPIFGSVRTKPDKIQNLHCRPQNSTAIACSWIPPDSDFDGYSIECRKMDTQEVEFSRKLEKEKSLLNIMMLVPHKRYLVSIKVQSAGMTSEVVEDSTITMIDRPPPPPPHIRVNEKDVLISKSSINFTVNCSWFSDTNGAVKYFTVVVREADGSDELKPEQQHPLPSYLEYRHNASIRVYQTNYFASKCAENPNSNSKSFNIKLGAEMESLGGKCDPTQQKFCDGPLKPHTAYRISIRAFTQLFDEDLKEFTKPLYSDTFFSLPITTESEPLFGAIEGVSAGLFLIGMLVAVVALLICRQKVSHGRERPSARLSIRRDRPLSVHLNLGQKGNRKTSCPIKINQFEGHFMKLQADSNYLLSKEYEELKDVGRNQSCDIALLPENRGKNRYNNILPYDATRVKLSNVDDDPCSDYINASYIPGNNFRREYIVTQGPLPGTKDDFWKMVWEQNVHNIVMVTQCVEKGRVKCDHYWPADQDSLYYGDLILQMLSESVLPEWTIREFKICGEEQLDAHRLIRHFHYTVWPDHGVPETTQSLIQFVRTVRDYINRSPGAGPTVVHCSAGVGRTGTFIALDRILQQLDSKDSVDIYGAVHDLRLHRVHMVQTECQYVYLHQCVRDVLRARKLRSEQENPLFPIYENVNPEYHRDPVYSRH
T2 sequence (P03772 whole entry): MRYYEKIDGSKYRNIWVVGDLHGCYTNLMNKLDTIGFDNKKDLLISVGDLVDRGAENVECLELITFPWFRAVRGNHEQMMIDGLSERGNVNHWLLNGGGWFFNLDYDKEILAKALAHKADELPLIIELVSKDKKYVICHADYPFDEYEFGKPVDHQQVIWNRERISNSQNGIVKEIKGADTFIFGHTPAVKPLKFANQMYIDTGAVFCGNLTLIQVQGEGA

On to `O=c1[nH]c(=O)c2cc(-c3ccccc3)sc2[nH]1` [JMS-038], for which the IC50 in assay [1], in [2], in [3], in assay [4], in assay [5] and in assay [6] was more than 50 µM in each case. Moreover, the IC50 was more than 50 µM in assay [7]; more than 50 µM in [8]; more than 50 µM in assay [9]; more than 50 µM in [10]; more than 50 µM in assay [11] (Homo sapiens, HEY A8, 48 h, Mean ± SD, N=3); more than 50 µM in assay [12]. For the same compound, the IC50 in [13], in assay [14], in assay [15], in assay [16], in assay [17] and in assay [18] was more than 50 µM in each case. In addition, the IC50 in [19] was more than 50 µM; in assay [20] it was more than 25 µM; in assay [21], more than 50 µM; in assay [25] it was more than 100 µM. Besides, the “HeyA8 cell spheroid growth (images)” value in [11] (images 48 h after plating and 24 h after compound addition) was “but not JMS-038 inhibited HeyA8 cell spheroid growth”. For the same compound, the “migration of HeyA8 cells after wounding” value in [22] was “but not JMS-038 blocked the migration”. Moreover, the “effect on RhoA activation compared to DMSO vehicle control” value in [23] is given as “no significant effect”. For the same compound, the “∆Tm of PTP4A3 (destabilizing thermal shift)” value in assay [24] is recorded as “no significant thermal shift; also recorded: no effect”.
On to `N=C1C(=O)NC(=O)c2cc(-c3ccccc3)sc21` [JMS-053], for which the activity at 1 µM stood at 1% in [26] (1 µM, in-house assay, N=2, read-out: % Activity (Mean ± SD) PTP4A1); 97 ± 3% in [27]; 99% in assay [28]; 95 ± 5% in [29]; 95 ± 1% in assay [30]; 72 ± 3% in assay [31]. In addition, in assay [26], the IC50 was found to be 0.05 ± 0.014 µM. Also, the “inhibition of p38α” value in assay [32] is approximately 50%. Besides, the “TEER after VEGF, pretreatment” value in assay [33] (2 h before VEGF 100 ng/mL then continuous exposure) is given as “normalized”. Moreover, the “TEER after VEGF, post-treatment” value in assay [33] (3 h after VEGF 100 ng/mL) was “normalized endothelial barrier function”. For the same compound, the “TEER after LPS, pretreatment” value in [34] (5 µM, 24 h prior to LPS 0.5 EU/mL) is listed as “prevented LPS-induced disruption of the endothelial barrier function”. Besides, the “TEER after LPS, post-treatment” value in assay [34] (treatment 3 h after LPS exposure) is listed as “no observed mitigation”. Moreover, in assay [35], the “LPS-mediated RhoA activation” value is on record as “blocked”. In assay [36], the “LPS-mediated reduction in Rac1 activation” value is “blocked”.
For the compound `Nc1c[nH]c(=O)c2cc(-c3ccccc3)sc12` [thienopyridone, reference compound], the IC50 in assay [1] was 13.1 ± 6 µM; in assay [2], 4.5 ± 0.6 µM; in [3], more than 50 µM; in [4], 47 ± 4.9 µM; in assay [6], 15.5 ± 2.4 µM; in assay [7], 31.3 ± 8.5 µM. In addition, the IC50 is more than 50 µM in [8] and 28.8 ± 2.2 µM in assay [9].
